The NIST ThermoML archive (doi:10.1021/acs.jced.8b00662)

How the values were obtained:
[1] = xn = mol fraction of the nth substance listed; settings: 100 kPa, Liquid; for viscosity: Falling or rolling sphere viscometry; for mass density: Vibrating tube method
[2] = 100 kPa, Liquid; for viscosity: Falling or rolling sphere viscometry; for mass density: Vibrating tube method

c1ccc2c(c1)CCCC2 [1,2,3,4-tetrahydronaphthalene] + CC(C)C1CCCCC1
[1], x1 = 1
Settings | mass density [kg/m3] | viscosity [mPa·s]
293.15 K | 968.89 | 2.233
298.15 K | 964.92 | 2.019
303.15 K | 960.96 | 1.838
308.15 K | 956.99 | 1.681
313.15 K | 953.03 | 1.546
318.15 K | 949.05 | 1.428
323.15 K | 945.1 | 1.324
328.15 K | 941.13 | 1.233
333.15 K | 937.17 | 1.151
338.15 K | 933.19 | 1.079
343.15 K | 929.2 | 1.013

OCC1CC1 [cyclopropylmethanol]
[2]
Settings | mass density [kg/m3] | viscosity [mPa·s]
293.15 K | 913.02 | 3.988
298.15 K | 908.96 | 3.455
303.15 K | 904.87 | 3.009
308.15 K | 900.74 | 2.635
313.15 K | 896.59 | 2.321
318.15 K | 892.38 | 2.054
323.15 K | 888.17 | 1.825
328.15 K | 883.86 | 1.629
333.15 K | 879.52 | 1.46
338.15 K | 875.1 | 1.316
343.15 K | 870.62 | 1.19

c1ccc2c(c1)CCCC2 [1,2,3,4-tetrahydronaphthalene]
[2]
Settings | mass density [kg/m3] | viscosity [mPa·s]
293.15 K | 968.89 | 2.233
298.15 K | 964.92 | 2.019
303.15 K | 960.96 | 1.838
308.15 K | 956.99 | 1.681
313.15 K | 953.03 | 1.546
318.15 K | 949.05 | 1.428
323.15 K | 945.1 | 1.324
328.15 K | 941.13 | 1.233
333.15 K | 937.17 | 1.151
338.15 K | 933.19 | 1.079
343.15 K | 929.2 | 1.013

CC(C)C1CCCCC1 [(1-methylethyl)cyclohexane]
[2]
Settings | mass density [kg/m3] | viscosity [mPa·s]
293.15 K | 802.14 | 1.093
298.15 K | 798.24 | 1.016
303.15 K | 794.34 | 0.947
308.15 K | 790.43 | 0.886
313.15 K | 786.51 | 0.831
318.15 K | 782.59 | 0.782
323.15 K | 778.66 | 0.738
328.15 K | 774.72 | 0.698
333.15 K | 770.77 | 0.661
338.15 K | 766.81 | 0.628
343.15 K | 762.84 | 0.598

OCC1CC1 [cyclopropylmethanol] + CC(C)C1CCCCC1
[1], x2 = 0
Settings | mass density [kg/m3] | viscosity [mPa·s]
293.15 K | 913.02 | 3.988
298.15 K | 908.96 | 3.455
303.15 K | 904.87 | 3.008
308.15 K | 900.74 | 2.635
313.15 K | 896.59 | 2.321
318.15 K | 892.38 | 2.054
323.15 K | 888.17 | 1.825
328.15 K | 883.86 | 1.629
333.15 K | 879.52 | 1.46
338.15 K | 875.1 | 1.317
343.15 K | 870.62 | 1.19

c1ccc2c(c1)CCCC2 [1,2,3,4-tetrahydronaphthalene] + OCC1CC1
[1], x1 = 1
Settings | mass density [kg/m3] | viscosity [mPa·s]
293.15 K | 968.89 | 2.233
298.15 K | 964.92 | 2.019
303.15 K | 960.96 | 1.838
308.15 K | 956.99 | 1.681
313.15 K | 953.03 | 1.546
318.15 K | 949.05 | 1.428
323.15 K | 945.1 | 1.324
328.15 K | 941.13 | 1.233
333.15 K | 937.17 | 1.151
338.15 K | 933.19 | 1.079
343.15 K | 929.2 | 1.013
